Here are results for three compounds from patent publication US20050065208A1, “Benzofuranes and their use in the treatment of atrial fibrillation” (priority 2001, published 2005).

Molecules are shown by their SMILES. Read-outs that look alike come from different tables or passages of the source.

Assay [1] has as its target T1, IK(ATP), ATP-sensitive K-current (Homo sapiens, UniProt Q14654).
T1 construct: electrophysiology technique applied to cardiomyocyte cultures; endogenous in cells; current induced with dinitrophenole
Set-up: key: Yes: The compound has been demonstrated to inhibit the particular current (reference within parenthesis).; No: The compound has been demonstrated to not inhibit the particular current (reference within parenthesis).; U: No data regarding interaction of the compound with the particular current has been found in the literature. The following applies: Table 2, literature; cited from earlier work.

The target of assay [2] is T2, IK(ACh), AcetylCholine activated K-current (Homo sapiens, UniProt P48544+P48549).
T2 construct: electrophysiology technique applied to cardiomyocyte cultures; endogenous in cells
T2 sequence (P48549 1-501): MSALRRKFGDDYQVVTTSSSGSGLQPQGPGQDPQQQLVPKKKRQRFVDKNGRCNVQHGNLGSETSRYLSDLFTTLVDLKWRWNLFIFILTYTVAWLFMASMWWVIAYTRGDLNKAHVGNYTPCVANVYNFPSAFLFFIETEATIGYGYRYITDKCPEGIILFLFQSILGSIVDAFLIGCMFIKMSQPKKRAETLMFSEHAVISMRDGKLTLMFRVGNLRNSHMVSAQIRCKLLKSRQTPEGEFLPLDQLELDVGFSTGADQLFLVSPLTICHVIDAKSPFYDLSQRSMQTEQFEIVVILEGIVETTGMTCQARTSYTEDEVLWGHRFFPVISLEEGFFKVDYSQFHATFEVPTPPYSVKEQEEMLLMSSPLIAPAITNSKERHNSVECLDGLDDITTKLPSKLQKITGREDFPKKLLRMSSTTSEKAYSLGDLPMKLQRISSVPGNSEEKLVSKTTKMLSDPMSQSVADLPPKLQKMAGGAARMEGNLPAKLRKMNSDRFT
T2 sequence (P48544 1-419): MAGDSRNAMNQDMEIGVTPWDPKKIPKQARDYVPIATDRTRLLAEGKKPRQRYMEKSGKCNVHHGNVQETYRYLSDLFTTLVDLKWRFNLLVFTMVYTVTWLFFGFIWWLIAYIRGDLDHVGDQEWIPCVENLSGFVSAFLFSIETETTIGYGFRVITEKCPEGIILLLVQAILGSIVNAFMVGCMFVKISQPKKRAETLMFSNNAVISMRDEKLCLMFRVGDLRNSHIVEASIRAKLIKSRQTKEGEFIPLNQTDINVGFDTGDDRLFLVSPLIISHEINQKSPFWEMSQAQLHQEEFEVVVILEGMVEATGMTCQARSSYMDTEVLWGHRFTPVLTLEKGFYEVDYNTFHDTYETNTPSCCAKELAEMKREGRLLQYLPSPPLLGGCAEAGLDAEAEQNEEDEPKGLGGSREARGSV
Set-up: key to Blocking activity on IK(ACh): Yes: The compound has been demonstrated to inhibit the particular current (reference within parenthesis).; No: The compound has been demonstrated to not inhibit the particular current (reference within parenthesis).; U: No data regarding interaction of the compound with the particular current has been found in the literature. The following applies: cited from earlier work.

In assay [3] the target is T3, INa, depolarizing Na-current (Homo sapiens, UniProt Q14524). Set-up: key: Yes: The compound has been demonstrated to inhibit the particular current (reference within parenthesis).; No: The compound has been demonstrated to not inhibit the particular current (reference within parenthesis).; U: No data regarding interaction of the compound with the particular current has been found in the literature. The following applies: Table 2, literature; cited from earlier work.

Assay [4] addresses T4, IKs, slow component of the delayed rectifier K-current (Homo sapiens, UniProt P51787). Further details: key: Yes: The compound has been demonstrated to inhibit the particular current (reference within parenthesis).; No: The compound has been demonstrated to not inhibit the particular current (reference within parenthesis).; U: No data regarding interaction of the compound with the particular current has been found in the literature. The following applies: Table 2, literature; cited from earlier work.

Assay [5] has as its system triiodthyronine (T3)-signalling. The assay is described as follows: Antagonism of T3-signalling action in cells. It is filed as cell-based. The following applies: manuscript in preparation.
Assay [6] concerns the target T5, IK(Ado), adenosine activated K-current (Homo sapiens, UniProt P48544+P48549).
T5 construct: electrophysiology technique applied to cardiomyocyte cultures; endogenous in cells
T5 sequence (P48549 1-501): T2 sequence (P48549 1-501)
T5 sequence (P48544 1-419): T2 sequence (P48544 1-419)
Set-up: key to Blocking activity on IK(Ado): Yes: The compound has been demonstrated to inhibit the particular current (reference within parenthesis).; No: The compound has been demonstrated to not inhibit the particular current (reference within parenthesis).; U: No data regarding interaction of the compound with the particular current has been found in the literature. The following applies: cited from earlier work.

Assay [7] relates to IK1, inward rectifier K-current. Further details: key: Yes: The compound has been demonstrated to inhibit the particular current (reference within parenthesis).; No: The compound has been demonstrated to not inhibit the particular current (reference within parenthesis).; U: No data regarding interaction of the compound with the particular current has been found in the literature. The following applies: Table 2, literature; cited from earlier work.

Assay [8] deals with T3, INa, depolarizing Na-current. The assay is described as follows: Voltage clamp: depolarizing Na-current. It is filed as cell-based. Further details: key: Yes: The compound has been demonstrated to inhibit the particular current (reference within parenthesis).; No: The compound has been demonstrated to not inhibit the particular current (reference within parenthesis).; U: No data regarding interaction of the compound with the particular current has been found in the literature. The following applies: Table 2, own voltage clamp data. An excerpt: (§1) Results from voltage clamp experiments with compounds of the invention on other ion-currents than IK(Ado), IK(ACh) and IK(ATP) are included in Table 2.

Assay [9] deals with T4, IKs, slow component of the delayed rectifier K-current. Description: Voltage clamp: slow component of the delayed rectifier K-current. The assay is classed as cell-based. Set-up: key: Yes: The compound has been demonstrated to inhibit the particular current (reference within parenthesis).; No: The compound has been demonstrated to not inhibit the particular current (reference within parenthesis).; U: No data regarding interaction of the compound with the particular current has been found in the literature. The following applies: Table 2, own voltage clamp data.
Excerpt: as §1

For assay [10], the target named is T5, IK(Ado), adenosine activated K-current. Description: Voltage clamp on cardiomyocyte cultures: inhibition of adenosine-induced K-current. It is filed as cell-based. Set-up: key to Blocking activity on IK(Ado): Yes: The compound has been demonstrated to inhibit the particular current (reference within parenthesis).; No: The compound has been demonstrated to not inhibit the particular current (reference within parenthesis).; U: No data regarding interaction of the compound with the particular current has been found in the literature. The following applies: for Blocking activity on IK(Ado): Table 2, own voltage clamp data; for inhibition at 50 µM: read-out: Inhibition of IK (Ado) Induced by Adenosine, % Inh. The source says:
(§2) In the present invention acute and chronic effects of various compounds have been investigated by using electrophysiology technique applied to cardiomyocyte cultures.
(§3) The inhibitory effects occur within seconds after induction of the current with ACh, Ado or dinitrophenole (DNP reduces intracellular ATP). The acute inhibitory effects caused by the compounds of the present invention on these K-currents in cardiac muscle tissue had not previously been discovered. The reasons for this include the fact that these ligand activated K-currents (IK(Ado), IK(ACh) and IK(ATP)) are preferentially active in the atrial cardiomyocytes (Workman A J et al. Cardiovasc Res 1999 September;43(4):974-84; Koumi S-I, and Wasserstorm A. American Journal of Physiology 266[35], H1812-H1821. 1994), while previous studies have been carried out with tissue from cardiac ventricles. Furthermore, IK(Ado) and IK(ACh) must first be induced via the M2 or A1 receptor (with ACh and Ado respectively) before any inhibition can be observed. Without any agonist at the extracellular site of the membrane these ligand-gated channels probably have only minor roles in shaping repolarization but, when activated by extracellular acetylcholine or adenosine, they can substantially shorten action potential duration in the atrium (Tristani-Firouzi M et al. Am J Med 2001 January; 110(1):50-9).
(§4) The following Table 1 illustrates the potency (IC50-values) of compounds of formulae I and II compared with other anti-arrhythmic drugs to inhibit the transmembrane currents IK(Ado) and IK(ACh) after stimulation of the currents with Adenosine or Acetylcholine (or Carbachol).

Assay [11] concerns IK1, inward rectifier K-current. Description: Voltage clamp: inward rectifier K-current. The assay is classed as cell-based. Set-up: key: Yes: The compound has been demonstrated to inhibit the particular current (reference within parenthesis).; No: The compound has been demonstrated to not inhibit the particular current (reference within parenthesis).; U: No data regarding interaction of the compound with the particular current has been found in the literature. The following applies: Table 2, own voltage clamp data.
Excerpt: as §1

In assay [12] the test system is Ito, transient outward K-current. The assay is described as follows: Voltage clamp: transient outward K-current. The following applies: Table 2, own voltage clamp data. The assay is classed as cell-based. Further details: key: Yes: The compound has been demonstrated to inhibit the particular current (reference within parenthesis).; No: The compound has been demonstrated to not inhibit the particular current (reference within parenthesis).; U: No data regarding interaction of the compound with the particular current has been found in the literature.
Excerpt: as §1

The target of assay [13] is T1, IK(ATP), ATP-sensitive K-current. The assay is described as follows: Voltage clamp on cardiomyocyte cultures: inhibition of ATP-sensitive K-current (induced with DNP). It is filed as cell-based. Further details: key: Yes: The compound has been demonstrated to inhibit the particular current (reference within parenthesis).; No: The compound has been demonstrated to not inhibit the particular current (reference within parenthesis).; U: No data regarding interaction of the compound with the particular current has been found in the literature. The following applies: Table 2, own voltage clamp data.
Excerpt: as §2, §3

The target in assay [14] is T2, IK(ACh), AcetylCholine activated K-current. Description: Voltage clamp on cardiomyocyte cultures: inhibition of K-current induced by ACh or carbachol. The assay is classed as cell-based. Set-up: key to Blocking activity on IK(ACh): Yes: The compound has been demonstrated to inhibit the particular current (reference within parenthesis).; No: The compound has been demonstrated to not inhibit the particular current (reference within parenthesis).; U: No data regarding interaction of the compound with the particular current has been found in the literature. The following applies: for Blocking activity on IK(ACh): Table 2, own voltage clamp data; for inhibition at 50 µM: read-out: Inhibition of IK (ACh) (Induced by ACh or Carbachol), % Inh.
Excerpt: as §2, §3, §4

T3 sequence (Q14524 whole entry): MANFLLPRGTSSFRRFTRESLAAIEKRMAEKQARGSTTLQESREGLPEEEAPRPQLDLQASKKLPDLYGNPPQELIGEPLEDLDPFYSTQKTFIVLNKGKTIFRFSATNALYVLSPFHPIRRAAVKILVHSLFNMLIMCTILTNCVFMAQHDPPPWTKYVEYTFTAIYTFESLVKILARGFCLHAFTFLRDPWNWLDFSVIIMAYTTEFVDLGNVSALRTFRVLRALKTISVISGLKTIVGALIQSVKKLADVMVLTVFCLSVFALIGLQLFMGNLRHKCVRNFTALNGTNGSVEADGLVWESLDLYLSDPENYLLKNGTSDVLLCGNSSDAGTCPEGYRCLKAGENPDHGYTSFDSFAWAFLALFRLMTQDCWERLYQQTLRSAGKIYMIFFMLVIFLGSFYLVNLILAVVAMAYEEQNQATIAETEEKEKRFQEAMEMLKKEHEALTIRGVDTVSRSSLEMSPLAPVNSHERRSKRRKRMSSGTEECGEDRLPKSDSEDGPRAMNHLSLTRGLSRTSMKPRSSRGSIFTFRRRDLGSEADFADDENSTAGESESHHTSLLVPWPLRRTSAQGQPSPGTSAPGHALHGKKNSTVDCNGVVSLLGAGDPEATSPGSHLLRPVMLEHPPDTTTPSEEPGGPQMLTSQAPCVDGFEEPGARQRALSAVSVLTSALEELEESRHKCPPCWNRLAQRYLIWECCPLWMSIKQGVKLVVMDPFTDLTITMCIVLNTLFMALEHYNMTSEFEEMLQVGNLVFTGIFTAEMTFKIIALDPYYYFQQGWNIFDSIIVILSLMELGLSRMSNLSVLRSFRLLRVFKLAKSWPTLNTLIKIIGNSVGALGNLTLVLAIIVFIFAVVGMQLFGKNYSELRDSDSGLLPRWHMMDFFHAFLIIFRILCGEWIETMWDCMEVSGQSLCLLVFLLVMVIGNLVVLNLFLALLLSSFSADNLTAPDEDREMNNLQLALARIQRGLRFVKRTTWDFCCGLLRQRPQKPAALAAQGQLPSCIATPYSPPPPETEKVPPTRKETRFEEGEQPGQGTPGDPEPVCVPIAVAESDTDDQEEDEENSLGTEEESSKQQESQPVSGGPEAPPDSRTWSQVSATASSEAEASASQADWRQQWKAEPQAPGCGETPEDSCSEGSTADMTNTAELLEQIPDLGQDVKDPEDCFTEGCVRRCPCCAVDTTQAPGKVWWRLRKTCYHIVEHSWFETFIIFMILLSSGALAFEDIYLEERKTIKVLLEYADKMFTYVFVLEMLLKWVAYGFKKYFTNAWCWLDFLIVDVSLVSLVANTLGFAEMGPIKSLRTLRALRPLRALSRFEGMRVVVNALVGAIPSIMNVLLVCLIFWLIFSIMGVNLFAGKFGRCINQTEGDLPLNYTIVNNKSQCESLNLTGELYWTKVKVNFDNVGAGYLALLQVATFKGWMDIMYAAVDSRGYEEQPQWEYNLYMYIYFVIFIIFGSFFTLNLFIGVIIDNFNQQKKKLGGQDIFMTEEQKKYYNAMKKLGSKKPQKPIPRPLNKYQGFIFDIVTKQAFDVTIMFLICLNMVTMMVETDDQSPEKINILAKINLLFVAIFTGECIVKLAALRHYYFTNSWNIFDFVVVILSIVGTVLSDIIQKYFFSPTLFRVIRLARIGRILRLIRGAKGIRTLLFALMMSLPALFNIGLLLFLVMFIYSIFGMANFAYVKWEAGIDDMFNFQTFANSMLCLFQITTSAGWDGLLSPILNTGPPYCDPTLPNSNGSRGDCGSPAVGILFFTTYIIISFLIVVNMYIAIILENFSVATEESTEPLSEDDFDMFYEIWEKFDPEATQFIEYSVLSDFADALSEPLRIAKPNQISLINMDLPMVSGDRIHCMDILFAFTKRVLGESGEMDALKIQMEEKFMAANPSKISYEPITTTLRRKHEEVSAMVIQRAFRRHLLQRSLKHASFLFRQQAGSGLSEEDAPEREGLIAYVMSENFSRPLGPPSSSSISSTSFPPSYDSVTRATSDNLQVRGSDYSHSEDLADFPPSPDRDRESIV
T1 sequence (Q14654 whole entry): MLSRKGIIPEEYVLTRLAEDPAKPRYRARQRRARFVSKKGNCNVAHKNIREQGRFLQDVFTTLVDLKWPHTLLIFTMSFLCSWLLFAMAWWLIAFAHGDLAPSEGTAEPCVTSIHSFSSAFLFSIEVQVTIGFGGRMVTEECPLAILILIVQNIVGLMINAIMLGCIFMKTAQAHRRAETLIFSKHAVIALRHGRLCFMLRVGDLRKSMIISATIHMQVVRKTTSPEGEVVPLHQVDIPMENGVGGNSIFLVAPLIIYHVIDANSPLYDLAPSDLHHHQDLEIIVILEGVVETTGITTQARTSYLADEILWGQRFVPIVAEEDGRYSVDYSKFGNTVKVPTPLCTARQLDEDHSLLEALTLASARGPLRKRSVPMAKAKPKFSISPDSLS
T1 sequence (O60706 whole entry partner): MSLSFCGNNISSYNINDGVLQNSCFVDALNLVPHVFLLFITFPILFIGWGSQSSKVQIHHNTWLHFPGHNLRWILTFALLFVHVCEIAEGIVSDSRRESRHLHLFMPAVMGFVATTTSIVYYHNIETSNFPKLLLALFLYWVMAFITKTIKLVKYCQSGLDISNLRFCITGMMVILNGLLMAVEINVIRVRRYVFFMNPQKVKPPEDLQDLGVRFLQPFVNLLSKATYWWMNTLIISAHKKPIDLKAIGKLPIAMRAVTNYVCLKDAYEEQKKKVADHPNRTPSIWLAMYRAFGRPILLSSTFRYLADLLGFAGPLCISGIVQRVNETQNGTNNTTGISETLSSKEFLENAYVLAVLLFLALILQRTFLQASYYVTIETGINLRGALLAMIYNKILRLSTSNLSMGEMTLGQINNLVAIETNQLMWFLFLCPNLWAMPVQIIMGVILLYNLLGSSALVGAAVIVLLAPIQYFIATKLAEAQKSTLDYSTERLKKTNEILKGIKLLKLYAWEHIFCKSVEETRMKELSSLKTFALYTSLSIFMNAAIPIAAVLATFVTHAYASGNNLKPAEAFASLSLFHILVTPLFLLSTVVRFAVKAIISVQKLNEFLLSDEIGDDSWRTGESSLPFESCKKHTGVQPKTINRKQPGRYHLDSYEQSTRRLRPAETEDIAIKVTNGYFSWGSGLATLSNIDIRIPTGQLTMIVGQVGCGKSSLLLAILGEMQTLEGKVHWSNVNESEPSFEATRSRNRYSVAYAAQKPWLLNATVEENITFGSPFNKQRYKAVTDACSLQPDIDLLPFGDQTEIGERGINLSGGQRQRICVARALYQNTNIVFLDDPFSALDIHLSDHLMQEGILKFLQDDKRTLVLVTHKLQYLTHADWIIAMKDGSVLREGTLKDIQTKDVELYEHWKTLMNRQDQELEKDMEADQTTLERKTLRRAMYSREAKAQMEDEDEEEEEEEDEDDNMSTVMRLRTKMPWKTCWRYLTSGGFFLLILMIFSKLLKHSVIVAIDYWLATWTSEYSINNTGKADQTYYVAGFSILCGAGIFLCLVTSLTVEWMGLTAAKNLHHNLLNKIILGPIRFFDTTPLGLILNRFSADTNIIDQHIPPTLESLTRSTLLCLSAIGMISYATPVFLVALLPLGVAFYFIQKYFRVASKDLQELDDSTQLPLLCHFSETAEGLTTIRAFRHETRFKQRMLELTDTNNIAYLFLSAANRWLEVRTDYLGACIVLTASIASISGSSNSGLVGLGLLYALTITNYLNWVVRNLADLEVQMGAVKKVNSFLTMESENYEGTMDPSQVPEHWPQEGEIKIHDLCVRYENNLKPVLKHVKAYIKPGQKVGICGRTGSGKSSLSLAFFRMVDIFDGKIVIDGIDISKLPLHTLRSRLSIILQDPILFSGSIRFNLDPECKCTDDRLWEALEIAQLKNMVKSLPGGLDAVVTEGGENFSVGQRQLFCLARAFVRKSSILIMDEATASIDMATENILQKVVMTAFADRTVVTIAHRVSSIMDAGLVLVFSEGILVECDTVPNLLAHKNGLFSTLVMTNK

For the compound `CCCCc1oc2ccccc2c1C(=O)c1cc(I)c(OCCN(CC)CC)c(I)c1` [Amiodarone], in assay [1], the “Blocking activity on IK(ATP)” value was “Yes”. Further, the “Blocking activity on IK(ACh)” value in [2] (Table 2, literature) is “Yes”. In addition, the “Block of ligand-gated current IK(ACh), in words” value in assay [2] (Watanabe et al.) is “does block”. Further, the half-maximal inhibitory concentration (IC50) (in general, the concentration that gives 50% inhibition) in [2] (current induced by ACh or carbachol, literature value, read-out: Inhibition of IK (ACh) (Induced by ACh or Carbachol) (IC50)) is 2000 nM; in [6] (current induced by adenosine, literature value, read-out: Inhibition of IK (Ado) Induced by Adenosine (IC50)) it was 2000 nM. Also, in [3], the “Blocking activity on INa” value is reported as “Yes”. The “Blocking activity on IKs” value in assay [4] is listed as “Yes”. Moreover, the “Antagonism of triiodthyronine (T3)-signalling action in cells” value in [5] is on record as “antagonize”. Moreover, the “Blocking activity on IK(Ado)” value in [6] (Table 2, literature) is “Yes”. The “Block of ligand-gated current IK(Ado), in words” value in assay [6] (Watanabe et al.) was “does block”. Further, the “Blocking activity on IK1” value in assay [7] is recorded as “Yes”.

Regarding `Cc1oc2ccccc2c1Cc1cc(C(C)C)c(OCC(=O)O)c(C(C)C)c1` [Example E4, 2-methyl-3-(3,5-diisopropyl-4-carboxymethoxybenzyl)benzofuran], in assay [8], the “Blocking activity on INa” value is listed as “No”. Besides, the “Blocking activity on IKs” value in assay [9] is recorded as “No”. Further, in assay [10], the “Blocking activity on IK(Ado)” value is “Yes” and the inhibition (commonly the share of the control response that was lost under treatment) at 50 µM came to 100%. In addition, the “Blocking activity on IK1” value in assay [11] is listed as “No”. Also, the “Blocking activity on Ito” value in assay [12] is listed as “No”. Further, the “Blocking activity on IK(ATP)” value in assay [13] is “Yes”. For the same compound, in assay [14], the “Blocking activity on IK(ACh)” value is recorded as “Yes” and the inhibition at 50 µM came to 100%.

For the compound `Cc1oc2ccccc2c1Cc1cc(I)c(OCC(=O)O)c(I)c1` [Example E6, 2-methyl-3-(3,5-diiodo-4-carboxymethoxy-benzyl)benzofuran], in [8], the “Blocking activity on INa” value is listed as “No”. Further, in assay [9], the “Blocking activity on IKs” value was “No”. Further, in assay [10], the “Blocking activity on IK(Ado)” value is “Yes” and the inhibition at 50 µM came out at 100%. The “Blocking activity on IK1” value in assay [11] is “No”. Also, the “Blocking activity on Ito” value in [12] was “No”. In assay [13], the “Blocking activity on IK(ATP)” value is recorded as “Yes”. Besides, in [14], the “Blocking activity on IK(ACh)” value is listed as “Yes” and the inhibition at 50 µM came to 100%.
